The values that follow come from US10155817B2, “Dual-target antibody targeting VEGFR-2 and DLL4 and pharmaceutical composition including same” (PharmAbcine Inc., priority 2012, dated 2018).

In one test the test system is Notch-1. In words: Promoter activity by Notch-1, luciferase reporter in LS174T cells co-cultured with 293-hDLL4. Type of test: cell-based, human. As to conditions: antibody 20 mg/ml, DAPT 5 mM, co-culture with 293-hDLL4 24 hours, luminescence, versus untreated antibody group, FIG. 9. Here is the method: 1×10^5 LS174T cells (colon cancer cell line; ATCC, CL-188™) were incubated in RPMI medium containing 10% of fetal calf serum for 24 hours, and 0.8 μg of Notch Cignal reporter DNA contained in Cignal Reporter Assay Kit (#336841 CCS-014L, QIAGEN) and 2 μl of lipofectamine (#11668-500; Invitrogen) were mixed with 100 μl of opti-MEM media and allowed to stand for 20 minutes, and then 400 μl of opti-MEM was added for transfection to incubate cells for 6 hours. After 6 hours, the medium was replaced with an MEM medium containing 10% fetal calf serum, and incubated overnight. Next day, Tanibirumab and PMC-201 (each of 20 mg/ml) were mixed and pre-treated in 1×10^5 of 293-hDLL4 cells for 1 hour, then co-cultured with LS174T cells transfected with Notch Cignal reporter DNA for 24 hours. DAPT (5 mM) was not pre-treated and 293-hDLL4 cell was mixed with the transfected LS174T cells, and co-cultured for 24 hours.
After co-culture for 24 hours, cells were lyzed by using a lysis buffer contained in Dual-Luciferase Reporter Assay System (Cat. # E1910; Promega), and a substrate and ATP were mixed with each other, and then luminescence amount was measured by using Luminometer.
Background: Reporter assays use an easily measured gene product as a stand-in for the process of interest.

Another test deals with T1, human DLL4 (Homo sapiens, UniProt Q9NR61).
T1 construct: expressed in transfected cells; host or cells: 293 cells stably transfected with pcDNA-hDLL4 (293-DLL4 pool; clone 293-hDLL4)
T1 sequence (Q9NR61 27-685): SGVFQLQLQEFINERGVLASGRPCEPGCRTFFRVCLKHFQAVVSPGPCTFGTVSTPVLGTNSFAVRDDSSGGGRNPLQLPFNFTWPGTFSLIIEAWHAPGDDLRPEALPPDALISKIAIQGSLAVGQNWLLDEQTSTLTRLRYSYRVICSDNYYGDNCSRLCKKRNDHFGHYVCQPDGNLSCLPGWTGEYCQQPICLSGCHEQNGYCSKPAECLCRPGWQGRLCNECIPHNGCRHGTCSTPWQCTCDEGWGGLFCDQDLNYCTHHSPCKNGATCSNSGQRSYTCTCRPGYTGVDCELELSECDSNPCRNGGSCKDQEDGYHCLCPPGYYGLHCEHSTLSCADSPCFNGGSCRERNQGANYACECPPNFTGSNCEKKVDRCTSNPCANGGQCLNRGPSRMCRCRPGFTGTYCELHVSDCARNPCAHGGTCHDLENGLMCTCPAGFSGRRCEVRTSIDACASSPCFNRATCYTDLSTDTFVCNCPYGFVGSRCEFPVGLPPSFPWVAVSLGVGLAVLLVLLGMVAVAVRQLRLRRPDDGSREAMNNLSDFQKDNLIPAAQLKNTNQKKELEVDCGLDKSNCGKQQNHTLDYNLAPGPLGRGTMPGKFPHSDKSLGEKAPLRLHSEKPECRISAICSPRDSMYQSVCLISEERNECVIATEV
In words: Biacore affinity analysis to human DLL4. In kind it is binding. As to conditions: BIACORE 3000, CM5 chip, sample immobilized, DLL4 4.9-312.5 nM as antigen, FIG. 5. The method, then: In order to calculate Kd (dissociation constant) of PMC-201 to human DLL4, BIACORE® 3000 (GE Healthcare) was used, and CM5 chip was used. The dissociation constant is similar to Km value, and is used as an affinity index of an enzyme to a substrate in an enzyme-substrate complex. The affinity between the enzyme and the substrate is increased as the dissociation constant is decreased.
The sample was immobilized by using 400 mM EDC (N-ethyl-N′-(dimethylaminopropyl) Carbodiimide), 100 mM NHS (N-Hydroxysuccinimide), and 1M ethanolamine hydrochloride (pH 8.5) that are an Amine Coupling Kit (GE Healthcare), and 20 mM sodium hydroxide as a generation buffer, and 1×PBS as an immobilization buffer were diluted, and then the analysis sample was 1:40 diluted in 10 mM acetate (pH 5.0) (GE Healthcare). The sample was immobilized at 4000RU (Response Unit). A buffer for measuring adsorption of the analysis sample was a HBS-EP buffer (GE Healthcare). DLL4s having measurement concentrations of 4.9, 9.7, 19.5, 39.1, 78.1, 156.3, 312.5 nM as an antigen were serial-diluted so as to have a final volume of 200 μl by using an HBS-EP buffer. Five concentrations of seven concentrations were selected and fitted. […] Affinity of the analysis sample was measured under conditions in which an analysis flow rate was 30 μl/min, a binding section was 60 seconds, and a dissociation was 300 seconds.
On the technique in general: SPR reads the build-up and loss of mass on a sensor chip optically.

On to `C[C@H](NC(=O)Cc1cc(F)cc(F)c1)C(=O)N[C@H](C(=O)OC(C)(C)C)c1ccccc1` [DAPT, N—[N-(3,5-Difluorophenacetyl)-L-alanyl]-S-phenylglycine t-butyl ester], for which the “promoter activation of NICD exhibited by Notch-1 activation of LS174T cells” value in the test with Notch-1 is “decreased”.

B1: Notch-1 Fc: Notch-1 Fc protein used as comparator for binding to hDLL4 (protein)
chain: ARGPRCSQPGETCLNGGKCEAANGTEACVCGGAFVGPRCQDPNPCLSTPCKNAGTCHVVDRRGVADYACSCALGFSGPLCLTPLDNACLTNPCRNGGTCDLLTLTEYKCRCPPGWSGKSCQQADPCASNPCANGGQCLPFEASYICHCPPSFHGPTCRQDVNECGQKPGLCRHGGTCHNEVGSYRCVCRATHTGPNCERPYVPCSPSPCQNGGTCRPTGDVTHECACLPGFTGQNCEENIDDCPGNNCKNGGACVDGVNTYNCRCPPEWTGQYCTEDVDECQLMPNACQNGGTCHNTHGGYNCVCVNGWTGEDCSENIDDCASAACFHGATCHDRVASFYCECPHGRTGLLCHLNDACISNPCNEGSNCDTNPVNGKAICTCPSGYTGPACSQDVDECSLGANPCEHAGKCINTLGSFECQCLQGYTGPRCEIDVNECVSNPCQNDATCLDQIGEFQCICMPGYEGVHCEVNTDECASSPCLHNGRCLDKINEFQCECPTGFTGHLCQ
modifications: left off: a dimerising Fc or GST
As for B1, the “affinity (Kd, dissociation constant) to human DLL4” value with human DLL4 is “affinity was confirmed”.
